The text below walks through data of patent publication US20260108547A1, “LEVERAGING L-FUCOSE-MEDIATED SIGNALING TO INDUCE MONOCYTE-DERIVED DENDRITIC CELL POLARIZATION” (H. LEE MOFFITT CANCER CENTER AND RESEARCH INSTITUTE, INC., priority 2022, published 2026).

The subject of this experiment is SM1 tumors. The experiment can be described thus: Flow cytometric profiling of tumors and draining lymph nodes, SM1 tumors in C57BL/6 mice fed ± L-fucose and treated ± anti-PD-1 (Table 2). The format is in vivo, mouse. As to the method:
Tumors of SW1 or SM1 melanoma cells from […] or C57BL/6 mice, respectively) were digested using 1× tumor digest buffer (0.5 mg/mL Collagenase I, 0.5 mg/mL Collagenase IV, 0.25 mg/mL Hyalyronidase V, 0.1 mg/mL DNAse I in HBSS (Millipore Sigma (St. Louis, MO)). Tumors were homogenized using the Miltenyi MACs dissociator. Red blood cells were lysed using ACK lysis buffer (Life Technologies, (Grand Island, NY)). Tumor homogenate cells were counted using a standard hemocytometer.
Total TILs were gated first to single cells (based on forward scatter height vs width, followed by side scatter height vs. width). Live cells were gated from the Zombie negative population from the population above. TILs were gated based on splenocyte size from a control spleen. Individual immune subpopulations were sub-gated from the total TIL population using the following staining criteria: CD3^+ for CD3^+ T cells; CD3^+/CD4^+/CD8^− for CD4^+T cells; CD3^+/CD4^−/CD8^+ for CD8^+ T cells, CD11c^+/CD11b^+ for DCs; either NK1.1 (for C57/BL6 mice) or DX5 (for C3H/HeJ) for NK cells; CD11b^+/GR1^+ for MDSC-like cells; and F4/80^+ for macrophages. Single-cell suspensions from tumor and spleen tissue were stained with Live/Dead Zombie NIR (Biolegend, (San Diego, CA)) at 1:1,000 in PBS for 20 min. […]
A general note: Flow cytometry measures light scatter and fluorescence of single cells or particles in a stream.

As to `C[C@H](O)[C@@H](O)[C@@H](O)[C@H](O)C=O` [L-fucose], for the setting “Day 21, lymph nodes”, the “average # of cDC2 cells” value was 13997.11 per 10^6 cells. Further, the “intratumoral CD4+T central and effector memory cells” value (SM1 model, L-fuc alone) is recorded as “increased”.
